Laboratory results reported in patent publication US20240299273A1, “MULTIPHASIC LIQUID COMPOSITIONS FOR IMPROVED DEPOSITION OF ACTIVE INGREDIENTS” (SPECIALITY OPERATIONS FRANCE, priority 2021, published 2024).

Tests used:
[1] = Solubility of amphiphilic compound in pure water; type: physicochemical
[2] = Compatibility / phase separation of amphiphilic compound with amphiphilic surfactant system in water (microscope, visual appearance); type: physicochemical; details: concentrations as in the label, SLES alone at 12 wt. %
Method: Further, in certain embodiments, the amphiphilic compound forms a separate phase from the amphiphilic surfactant system when the amphiphilic surfactant system and the amphiphilic compound are combined in water. In this respect, the separate phase is determined by combining from 5 wt. % up to 70 wt. % of a total concentration of the amphiphilic compound and the amphiphilic surfactant system, based on a total weight of the amphiphilic compound, the amphiphilic surfactant system, and water totaling 100 wt. %, with the ratio of the amphiphilic surfactant system to the amphiphilic compound ranging from 99:1 to 50:50, preferably from 90:10 to 60:40, more preferably from 80:20 to 70:30, and determining whether any objects larger than 150 nm are observed using a conventional microscope, preferably an Olympus IX71 conventional microscope, equipped with 100× oil objective.
With respect to the amphiphilic compounds being immiscible with a combination of the amphiphilic surfactant system and water, the amphiphilic compounds can form a separate phase from the amphiphilic surfactant system in water at 25° C. […]
The interfacial tension was measured using Sigma 701 tensiometer, and compatibility was observed using Olympus IX71 conventional microscope equipped with 100× oil objective, as described above.

| solubility in water [1] | Compound | other results |
| --- | --- | --- |
|  | CCCCCCCCCC[N+](C)(C)CCCCCCCCCC.[Cl-] [Maquat 4450, didecyldimethylammonium chloride] | solubility in water (in words) [1]: high water solubility |
| < 1 wt %) | CCCCCCCCCCCCCOC(=O)CC(C(=O)OCCCCCCCCCCCCC)S(=O)(=O)O.[Na] (stereo not shown) [Sodium bis(tridecyl) sulfosuccinate] |  |
|  | sodium laureth sulfate [sodium laureth sulfate (SLES)] | visual appearance (FIG. 2) [2]: transparent, and therefore, no phase separation |
| < 1 wt %) | CCCCCCCCCCCCCCCCCC(=O)OCC[N+](C)(C)CCOC(=O)CCCCCCCCCCCCCCCCC.[Cl-] [DEEDMAC, Dimethylbis[2-[(1-oxooctadecyl)oxy]ethyl]ammonium chloride] |  |
